Measurements: patent US20090048310A1, “AGENT FOR PREVENTION/TREATMENT OF DISEASE CAUSED BY ACYCLOVIR-RESISTANT HERPESVIRUS” (ASTELLAS PHARMA INC., priority 2005, published 2009)

Assays:
[1] = system: HSV-1 strain WT-51; assay: Cutaneous HSV-1 infection mouse model; format: in vivo, HR-1 hairless mouse; settings: oral, 10 mg/kg twice a day for 5 days, scores for 17 days
Protocol: Using a cutaneous HSV-1 infection mouse model prepared in reference to the method of H. Machida et al. (Antiviral Res., 1992, 17, 133-143), the in vivo […] of the compounds of the present invention was tested using an animal model. The skin of each HR-1 hairless mouse [female, 7 weeks of age] was scratched lengthwise and breadthwise several times using a needle and a virus suspension (HSV-1 strain WT-51, 1.5×10^4 PFU/15 μl) was dropped to the scarified region for infection, while anesthetized with diethyl ether.
Tested compounds were administered orally as a methyl cellulose suspension, except for compounds marked with asterisk which were dissolved in 20% Cremophor EL (Nacalai Tesque)/20% polyethylene glycol (PEG) 400/60% H2O solution, starting at 3 hours after the infection, and then at a dose of 10 mg/kg twice a day for 5 days. The symptom of the skin lesion caused by HSV-1 infection were classified in the following scores for 17 days:
Score 0: no signs of infection.
Score 1: localized, barely perceptible small vesicles.
Score 2: slight vesicle spread.
Score 3: large patches of vesicles formed.
Score 4: zosteriform vesicles.
Score 5: large patches of ulcers formed.
Score 6: zosteriform with severe large ulcers.
Score 7: hind limb paralysis or death.
The AUC value was calculated from each group's mean disease score, and the disease inhibitory rate of the group administered with each test compound to the placebo group was calculated using the AUC.

[2] = system: ACV-resistant HSV-1; assay: ACV-resistant HSV-1 infection lethal model in nude mice; format: in vivo, nude mouse (CD-1(ICR)-nu/nu); settings: 100 mg/kg oral twice a day for 15 days
Protocol: ACV-resistant HSV-1 (3×10^6 pfu) was inoculated into the peritoneal cavity of each nude mouse (CD-1(ICR)-nu/nu, […], female, Charles River Japan) to cause infection with the virus. Each compound to be tested was made into a methyl cellulose suspension and orally administered at a dose of 100 mg/kg, twice a day for 15 days starting 1 hour after the infection (from 0 to 14 days after the infection).
During 17 days after the infection, death of the mice caused by ACV-resistant HSV-1 infection was observed every day, and the number of survived animals was counted.

[3] = dissolved in 20% Cremophor EL/20% PEG 400/60% H2O (asterisk)

Q: With `Cc1cccc(N(CC(=O)Nc2ccc(-c3cocn3)cc2)C(=O)C2CCS(=O)(=O)CC2)c1` [Preparation 3, N-(3-methylphenyl)-N-(2-{[4-(1,3-oxazol-4-yl)phenyl]amino}-2-oxoethyl)tetrahydro-2H-thiopyran-4-carboxamide 1,1-dioxide] as the compound, how does the “Inhibition ratio (%) (disease inhibitory rate vs placebo from AUC of mean disease score)” value (“Inhibition ratio (%)” below) ([1]; methyl cellulose suspension) read?
A: The value was 70%.

Q: `Cc1ccc(N(CC(=O)Nc2ccc(-c3cocn3)cc2)C(=O)C2CCS(=O)(=O)CC2)c(F)c1` [Preparation 20, N-(2-fluoro-4-methylphenyl)-N-(2-{[4-(1,3-oxazol-4-yl)phenyl]amino}-2-oxoethyl)tetrahydro-2H-thiopyran-4-carboxamide 1,1-dioxide] was tested. Which “Inhibition ratio (%)” value ([1]; methyl cellulose suspension) did it give?
A: Its value is 91%.

Q: `Cc1ccc(N(CC(=O)Nc2ccc(-c3cocn3)cc2)C(=O)C2CCS(=O)(=O)CC2)c(C)c1F` [Preparation 17, N-(3-fluoro-2,4-dimethylphenyl)-N-(2-{[4-(1,3-oxazol-4-yl)phenyl]amino}-2-oxoethyl)tetrahydro-2H-thiopyran-4-carboxamide 1,1-dioxide] was tested. Which “Inhibition ratio (%)” value ([1]; methyl cellulose suspension) did it give?
A: The value was 94%.

Q: Which “Inhibition ratio (%)” value ([1]; methyl cellulose suspension) does the source give for `Cc1c(F)cc(N(CC(=O)Nc2ccc(-c3cocn3)cc2)C(=O)C2CCS(=O)(=O)CC2)cc1F` [Preparation 19, N-(3,5-difluoro-4-methylphenyl)-N-(2-{[4-(1,3-oxazol-4-yl)phenyl]amino}-2-oxoethyl)tetrahydro-2H-thiopyran-4-carboxamide 1,1-dioxide] here?
A: Its value is 71%.

Q: How did the “Inhibition ratio (%)” value ([1]; methyl cellulose suspension) turn out when `Cc1ccc(N(CC(=O)Nc2ccc(-c3cocn3)cc2)C(=O)C2CCS(=O)(=O)CC2)c(C)c1` [Preparation 6, N-(2,4-dimethylphenyl)-N-(2-{[4-(1,3-oxazol-4-yl)phenyl]amino}-2-oxoethyl)tetrahydro-2H-thiopyran-4-carboxamide 1,1-dioxide] was run?
A: The value was 92%.

Q: With `Cc1cc(N(CC(=O)Nc2ccc(-c3cocn3)cc2)C(=O)C2CCS(=O)(=O)CC2)ccc1Cl` [Preparation 13, N-(4-chloro-3-methylphenyl)-N-(2-{[4-(1,3-oxazol-4-yl)phenyl]amino}-2-oxoethyl)tetrahydro-2H-thiopyran-4-carboxamide 1,1-dioxide] as the compound, how does the “Inhibition ratio (%)” value ([1]; methyl cellulose suspension) read?
A: Its value is 89%.

Q: For `O=C(CN(C(=O)C1CCS(=O)(=O)CC1)c1ccc2c(c1)CCC2)Nc1ccc(-c2cocn2)cc1` [Preparation 11, N-(2,3-dihydro-1H-inden-5-yl)-N-(2-{[4-(1,3-oxazol-4-yl)phenyl]amino}-2-oxoethyl)tetrahydro-2H-thiopyran-4-carboxamide 1,1-dioxide], which “Inhibition ratio (%)” value ([1]; methyl cellulose suspension) is on record?
A: The value was 92%.

Q: Which “Inhibition ratio (%)” value ([1]; methyl cellulose suspension) does the source give for `Cc1ccc(N(CC(=O)Nc2ccc(-c3cocn3)cc2)C(=O)C2CCS(=O)(=O)CC2)cc1C` [Preparation 8, N-(3,4-dimethylphenyl)-N-(2-{[4-(1,3-oxazol-4-yl)phenyl]amino}-2-oxoethyl)tetrahydro-2H-thiopyran-4-carboxamide 1,1-dioxide] here?
A: Its value is 91%.

Q: Which “Inhibition ratio (%)” value [1, 3] does the source give for `Cc1cc(F)cc(C)c1N(CC(=O)Nc1ccc(-c2ncon2)cc1)C(=O)C1CCS(=O)(=O)CC1` [Preparation 31, N-(4-fluoro-2,6-dimethylphenyl)-N-(2-{[4-(1,2,4-oxadiazol-3-yl)phenyl]amino}-2-oxoethyl)tetrahydro-2H-thiopyran-4-carboxamide 1,1-dioxide] here?
A: The value was “* 86%”.

Q: `COc1ccc(N(CC(=O)Nc2ccc(-c3csc(N)n3)cc2)C(=O)C2CCC(O)CC2)cc1` (stereo not drawn) [Comparative compound C, reference compound] was tested. Which “Inhibition ratio (%)” value ([1]; methyl cellulose suspension) did it give?
A: Its value is 44%.

Q: How did the “Inhibition ratio (%)” value ([1]; methyl cellulose suspension) turn out when `COc1ccc(N(CC(=O)Nc2ccc(-c3csc(N)n3)cc2)C(=O)C2CCS(=O)(=O)CC2)cc1` [Comparative compound B, reference compound] was run?
A: Its value is 2%.

Q: Which “Inhibition ratio (%)” value ([1]; methyl cellulose suspension) does the source give for `Nc1nc(-c2ccc(NC(=O)CN(C(=O)c3ccc(F)cc3)c3ccc4ncsc4c3)cc2)cs1` [Comparative compound A, reference compound] here?
A: The value was 38%.

Q: Which “Inhibition ratio (%)” value ([1]; methyl cellulose suspension) does the source give for `Cc1ccc(N(CC(=O)Nc2ccc(-c3cocn3)cc2)C(=O)C2CCS(=O)(=O)CC2)cc1F` [Preparation 14, N-(3-fluoro-4-methylphenyl)-N-(2-{[4-(1,3-oxazol-4-yl)phenyl]amino}-2-oxoethyl)tetrahydro-2H-thiopyran-4-carboxamide 1,1-dioxide] here?
A: The value was 98%.

Q: With `Cc1cccc(C)c1N(CC(=O)Nc1ccc(-c2cocn2)cc1)C(=O)C1CCS(=O)(=O)CC1` [Preparation 1, N-(2,6-dimethylphenyl)-N-(2-{[4-(1,3-oxazol-4-yl)phenyl]amino}-2-oxoethyl)tetrahydro-2H-thiopyran-4-carboxamide 1,1-dioxide] as the compound, how does the “Inhibition ratio (%)” value [1, 3] read?
A: The value was “* 93%”.

Q: For `Cc1ccc(N(CC(=O)Nc2ccc(-c3ncon3)cc2)C(=O)C2CCS(=O)(=O)CC2)c(C)c1F` [Preparation 39, N-(3-fluoro-2,4-dimethylphenyl)-N-(2-{[4-(1,2,4-oxadiazol-3-yl)phenyl]amino}-2-oxoethyl)tetrahydro-2H-thiopyran-4-carboxamide 1,1-dioxide], which “Inhibition ratio (%)” value ([1]; methyl cellulose suspension) is on record?
A: Its value is 80%.

Q: Which “death suppressing effect (in words)” value ([2]; 17 days after infection) does the source give for `CC(C)[C@H](N)C(=O)OCCOCn1cnc2c(=O)nc(N)[nH]c21` [VCV, valcyclovir, reference compound] here?
A: The value was “clear death suppressing effect was not found”.

Q: What about the “The number of survived animals (n = 10)” value ([2]; day 0 after infection) of the same compound?
A: Its value is 10.

Q: What about the “The number of survived animals (n = 10)” value ([2]; day 1 after infection) of the same compound?
A: The value was 10.

Q: What about the “The number of survived animals (n = 10)” value ([2]; day 2 after infection) of the same compound?
A: The value was 10.

Q: And the “The number of survived animals (n = 10)” value ([2]; day 4 after infection)?
A: Its value is 10.

Q: And the “The number of survived animals (n = 10)” value ([2]; day 5 after infection)?
A: Its value is 10.

Q: And the “The number of survived animals (n = 10)” value ([2]; day 6 after infection)?
A: Its value is 10.

Q: And the “The number of survived animals (n = 10)” value ([2]; day 7 after infection)?
A: The value was 9.

Q: And the “The number of survived animals (n = 10)” value ([2]; day 8 after infection)?
A: Its value is 8.

Q: And the “The number of survived animals (n = 10)” value ([2]; day 9 after infection)?
A: The value was 4.

Q: What about the “The number of survived animals (n = 10)” value ([2]; day 10 after infection) of the same compound?
A: The value was 2.

Q: And the “The number of survived animals (n = 10)” value ([2]; day 11 after infection)?
A: The value was 2.

Q: What about the “The number of survived animals (n = 10)” value ([2]; day 12 after infection) of the same compound?
A: The value was 2.

Q: What about the “The number of survived animals (n = 10)” value ([2]; day 14 after infection) of the same compound?
A: The value was 2.

Q: What about the “The number of survived animals (n = 10)” value ([2]; day 16 after infection) of the same compound?
A: The value was 2.

Q: What about the “The number of survived animals (n = 10)” value ([2]; day 17 after infection) of the same compound?
A: The value was 2.

Q: With `Nc1nc(-c2ccc(NC(=O)CN(C(=O)C3CCS(=O)(=O)CC3)c3ccc4c(c3)CCC4)cc2)cs1` [Comparative compound D, reference compound] as the compound, how does the “Inhibition ratio (%)” value ([1]; methyl cellulose suspension) read?
A: The value was 43%.

Q: How did the “Inhibition ratio (%)” value [1, 3] turn out when `Cc1ccc(N(CC(=O)Nc2ccc(-c3ncon3)cc2)C(=O)C2CCS(=O)(=O)CC2)c(C)c1` [Preparation 25, N-(2,4-dimethylphenyl)-N-(2-{[4-(1,2,4-oxadiazol-3-yl)phenyl]amino}-2-oxoethyl)tetrahydro-2H-thiopyran-4-carboxamide 1,1-dioxide] was run?
A: Its value is “* 70%”.

Q: Which “Inhibition ratio (%)” value ([1]; methyl cellulose suspension) does the source give for `Cc1cc(N(CC(=O)Nc2ccc(-c3ncon3)cc2)C(=O)C2CCS(=O)(=O)CC2)ccc1Cl` [Preparation 37, N-(4-chloro-3-methylphenyl)-N-(2-{[4-(1,2,4-oxadiazol-3-yl)phenyl]amino}-2-oxoethyl)tetrahydro-2H-thiopyran-4-carboxamide 1,1-dioxide] here?
A: Its value is 100%.

Q: `O=C(CN(C(=O)C1CCS(=O)(=O)CC1)c1ccc2c(c1)CCC2)Nc1ccc(-c2ncon2)cc1` [Preparation 33, N-(2,3-dihydro-1H-inden-5-yl)-N-(2-{[4-(1,2,4-oxadiazol-3-yl)phenyl]amino}-2-oxoethyl)tetrahydro-2H-thiopyran-4-carboxamide 1,1-dioxide] was tested. Which “Inhibition ratio (%)” value ([1]; methyl cellulose suspension) did it give?
A: Its value is 79%.

Q: `Cc1cccc(N(CC(=O)Nc2ccc(-c3ncon3)cc2)C(=O)C2CCS(=O)(=O)CC2)c1C` [Preparation 24, N-(2,3-dimethylphenyl)-N-(2-{[4-(1,2,4-oxadiazol-3-yl)phenyl]amino}-2-oxoethyl)tetrahydro-2H-thiopyran-4-carboxamide 1,1-dioxide] was tested. Which “Inhibition ratio (%)” value ([1]; methyl cellulose suspension) did it give?
A: The value was 89%.
